Like-named read-outs stand apart in the source and are kept apart here. Where a SMILES comes first, the peptide text is derived from it. [ ]: non-standard residue; d: D form. ξ: configuration not given here. Phe(4-NO2) = N[C@@H](Cc1ccc([N+](=O)[O-])cc1)C(=O)O; ξAla(4-thiazolyl) = NC(Cc1cscn1)C(=O)O; pS = N[C@@H](COP(=O)(O)O)C(=O)O; β3hS = N[C@@H](CO)CC(=O)O; Nva = CCC[C@H](N)C(=O)O; βAla = NCCC(=O)O
Target: T1, 14-3-3γ (Homo sapiens, UniProt P61981)
T1 construct: made in house; host or cells: E. coli NiCo21 (DE3)
T1 sequence (P61981 1-247): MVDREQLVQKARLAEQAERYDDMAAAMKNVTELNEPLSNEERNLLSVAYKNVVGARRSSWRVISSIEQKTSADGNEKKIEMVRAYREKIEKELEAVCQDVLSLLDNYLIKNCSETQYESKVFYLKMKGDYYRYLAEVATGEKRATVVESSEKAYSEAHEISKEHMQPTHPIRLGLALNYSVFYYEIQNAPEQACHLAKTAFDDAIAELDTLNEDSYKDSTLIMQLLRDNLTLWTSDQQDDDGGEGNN
Assay: Isothermal titration calorimetry (ITC) of 14-3-3 binding to peptide
Conditions: for ΔG / Kd / ΔH / -TΔS: ITC, 25 °C; for Kd: Table S6 (unit as in Table S5)
Experimental: 14-3-3γ protein expression (FP/ITC experiments)
A pPROEX HTb expression vector encoding the human 14-3-3 protein gamma (14-3-3γ) with an N-terminal his6-tag was transformed by heat shock into NiCo21 (DE3) competent cells. Single colonies were cultured in 50 mL LB medium (100 µg/mL ampicillin). After overnight incubation at 37 °C, cultures were transferred to 2 L TB media (100 µg/mL ampicillin, 1 mM MgCl2) and incubated at 37 °C until an OD600 nm of 0.8-1.2 was reached. Protein expression was then induced with 0.4 mM isopropyl-β-d-thiogalactoside (IPTG), and cultures were incubated overnight at 18 °C. Cells were harvested by centrifugation (8600 rpm, 20 minutes, 4 °C) and resuspended in lysis buffer (50 mM Hepes, pH 8.0, 300 mM NaCl, 12.5 mM imidazole, 5 mM MgCl2, 2 mM βME) containing cOmplete™ EDTA-free Protease Inhibitor Cocktail tablets (1 tablet/100 ml lysate) and benzonase (1 µl/100 ml). After lysis using a C3 Emulsiflex-C3 homogenizer (Avestin), the cell lysate was cleared by centrifugation (20000 rpm, 30 minutes, 4 °C) and purified using Ni2+-affinity chromatography (Ni-NTA superflow cartridges, Qiagen).
Typically two 5 mL columns (flow 5 mL/min) were used for a 2 L culture in which the lysate was loaded on the column washed with 10 CV wash buffer (50 mM Hepes, pH 8.0, 300 mM NaCl, 25 mM imidazole, 2 mM βME) and eluted in several fractions (2-4 CV) of elution buffer (50 mM Hepes, pH 8.0, 300 mM NaCl, 250 mM imidazole, 2 mM βME). Fractions containing the 14-3-3 protein were combined and dialyzed into 25 mM HEPES pH 8.0, 100 mM NaCl, 10 mM MgCl2, 500 µM TCEP. […]
The peptides 1 and 2a-d were synthesized on 50 µmol scale on a Rink amide MBHA resin (Novabiochem, 0.52 mmol/g loading) using an automated Intavis MultiPep RSi peptide synthesizer.
Deprotection was performed twice per cycle with 20% v/v piperidine in DMF for 8 minutes. Fmoc-protected amino acids were mixed in 5 equivalents of HBTU and 9 equivalents of DIPEA in DMF, and coupled to the resin. With the exception of phosphoserine, which was coupled once for 60 minutes, all amino acids were coupled to the resin twice for 30 minutes. Capping of unreacted amino acids was performed with a mixture of acetic anhydride/pyridine/DMF (1:1:3) for 5 minutes. βAla was incorporated as a spacer between the sequence and Lys(Alloc), to which a FITC fluorophore will be coupled for fluorescence anisotropy studies.
The peptides 1 and 2e-i were synthesized manually on a 50 µmol scale using Rink amide MBHA resin (Novabiochem, 0.52 mmol/g loading) via Fmoc based solid phase peptide synthesis. […]
(lex: 485 ± 20 nm; lem: 535 ± 25 nm; mirror: Dichroic 510; flashes: 20; integration time: 50 ms; settle time:
0 ms; gain: optimal; and Z-position: calculated from well). […]
Data was obtained and averaged based on two
To determine the cooperativity parameters from the 2D-titration of 14-3-3/ChREBP/2d (as described above) we have used the general framework for straightforward model construction of multi-component thermodynamic equilibrium systems as described by Geertjens et al. (2021).10 This general platform generates a model to describe multi-component equilibrium systems when given a system description.
In our case we gave the following system description: […]
α (with 95% confidence interval) and the error-landscape of the determine parameters.
Fluorescence anisotropy (FA) – Selectivity study: Peptides representing 14-3-3 binding partners (including ChREBP) were titrated in a 2-fold dilution series (starting at 100 µM) to 20 nM of fluorescein-labeled peptide 2d in presence and absence of, respectively, 2 µM 14-3-3γ in FA buffer (10 mM HEPES pH 7.4, 150 mM NaCl, 0.1% (v/v) Tween20, 0.1% (w/v) BSA). Dilution series were made in a polystyrene (non-binding) low-volume Corning Black Round Bottom 384-well plates (Corning 4514 or 4511).
Measurements were performed directly after plate preparation, using a Tecan Infinite F500 plate reader at room temperature (lex: 485 ± 20 nm; lem: 535 ± 25 nm; mirror: Dichroic 510; flashes: 20; integration […]

[1] = Table S5, ITC Kd / Kd of peptide 1, first unlabelled line (replicate 1)
[2] = Table S5, ITC Kd / Kd of peptide 1, second unlabelled line (replicate 2)
[3] = Table S5, ITC Kd of peptide divided by Kd of peptide 1, mean of n = 2
[4] = Table S5, ΔG minus ΔG of peptide 1, ITC, first unlabelled line (replicate 1)
[5] = Table S5, ΔG minus ΔG of peptide 1, ITC, second unlabelled line (replicate 2)
[6] = Table S5, ΔG of peptide minus ΔG of peptide 1, ITC, mean of n = 2
[7] = average of two runs, read-out: Kd
[8] = Table S6 (unit given in Fig. 4 legend), average of two runs

Row | Compound | Fold change to 1 [1] | Fold change to 1 [2] | Fold change to 1 [3] | ΔG (Table S5, mean of n = 2) [kcal/mol] | ΔG (Table S5, replicate 1) [kcal/mol] | ΔG (Table S5, replicate 2) [kcal/mol] | ΔΔG to 1 [4] [kcal/mol] | ΔΔG to 1 [5] [kcal/mol] | ΔΔG to 1 [6] [kcal/mol] | Kd [7] [nM] | Kd (run 1) | Kd (run 2) | ΔH [8] | -TΔS (Table S6, average of two runs) | ΔG (Table S6, average of two runs) | -TΔS (Table S6, run 1) | ΔG (Table S6, run 1) | ΔH (Table S6, run 1) | -TΔS (Table S6, run 2) | ΔG (Table S6, run 2) | further results
1 | CCC[C@H](NC(=O)[C@H](N)CCCCN)C(=O)N[C@@H](Cc1ccc([N+](=O)[O-])cc1)C(=O)N[C@@H](C)C(=O)N[C@@H](COP(=O)(O)O)C(=O)N[C@@H](Cc1ccc([N+](=O)[O-])cc1)C(=O)N[C@@H](CO)CC(=O)NCCC(=O)N[C@@H](Cc1ccc([N+](=O)[O-])cc1)C(=O)N[C@@H](CCCCN)C(N)=O [3a] (H-[dK][Nva][Phe(4-NO2)]A[pS][Phe(4-NO2)][β3hS][βAla][Phe(4-NO2)]K-NH2; N-terminus and C-terminus assumed) | 2.0 | 1.5 | 1.8 | -9.7 | -9.6 | -9.8 | 0.4 | 0.3 | 0.3 | 79.1 | 8,86E-08 M | 6,97E-08 M | -7,40 kcal mol^-1 | -2,29 kcal mol^-1 | -9,69 kcal mol^-1 | -1,624 kcal mol^-1 | -9,622 kcal mol^-1 | -7,998 kcal mol^-1 | -2,955 kcal mol^-1 | -9,764 kcal mol^-1 | ΔH (Table S6, run 2): -6,809 kcal mol^-1
2 | CCC[C@H](NC(=O)[C@H](N)CCCCN)C(=O)N[C@@H](Cc1ccc([N+](=O)[O-])cc1)C(=O)NC(Cc1cscn1)C(=O)N[C@@H](COP(=O)(O)O)C(=O)N[C@@H](Cc1ccc(O)cc1)C(=O)N[C@@H](CO)CC(=O)NCCC(=O)N[C@@H](Cc1ccc([N+](=O)[O-])cc1)C(=O)N[C@@H](CCCCN)C(N)=O (stereo partly drawn) [4a] (H-[dK][Nva][Phe(4-NO2)][ξAla(4-thiazolyl)][pS]Y[β3hS][βAla][Phe(4-NO2)]K-NH2; N-terminus and C-terminus assumed) | 2.8 | 1.3 | 2.1 | -9.6 | -9.4 | -9.8 | 0.6 | 0.2 | 0.4 | 93.6 | 1,26E-07 M | 6,09E-08 M | -6,64 kcal mol^-1 | -2,99 kcal mol^-1 | -9,63 kcal mol^-1 | -3,582 kcal mol^-1 | -9,411 kcal mol^-1 | -5,83 kcal mol^-1 | -2,393 kcal mol^-1 | -9,844 kcal mol^-1 | ΔH (Table S6, run 2): -7,45 kcal mol^-1
3 | CCC[C@H](NC(=O)[C@H](N)CCCCN)C(=O)N[C@@H](Cc1ccc([N+](=O)[O-])cc1)C(=O)NC(Cc1cscn1)C(=O)N[C@@H](COP(=O)(O)O)C(=O)N[C@@H](Cc1ccccc1)C(=O)N[C@@H](CO)CC(=O)NCCC(=O)N[C@@H](Cc1ccc([N+](=O)[O-])cc1)C(=O)N[C@@H](CCCCN)C(N)=O (stereo partly drawn) [4b] (H-[dK][Nva][Phe(4-NO2)][ξAla(4-thiazolyl)][pS]F[β3hS][βAla][Phe(4-NO2)]K-NH2; N-terminus and C-terminus assumed) | 0.6 | 0.8 | 0.7 | -10.2 | -10.3 | -10.1 | -0.3 | -0.1 | -0.2 | 31.9 | 2,62E-08 M | 3,76E-08 M | -7,40 kcal mol^-1 | -2,87 kcal mol^-1 | -10,24 kcal mol^-1 | -2,391 kcal mol^-1 | -10,34 kcal mol^-1 | -8,024 kcal mol^-1 | -3,345 kcal mol^-1 | -10,13 kcal mol^-1 | ΔH (Table S6, run 2): -6,783 kcal mol^-1

Source: publication PMC9667936, “Functional mapping of the 14-3-3 hub protein as a guide to design 14-3-3 molecular glues” (Chemical Science, 2022)
